The nature of series [1]: Cytotoxicity on normal cell line Fa2N4. Format: cell-based. The note with it: human, Fa2N4 cells (normal cell line); read-out: Cytotoxicity on Normal Cell Lines IC50.
The next series concerns MDA-MB-231 xenograft. Nature of the series: MDA-MB-231 xenograft mouse model.
Series [2] is described as follows: Pharmacokinetics in SD rats. It counts as in vivo, rat. The protocol: The pharmacokinetics (PK) study was conducted in male SD rats. Three rats received a single-dose intravenous injection of SJP1602 at 5 mg/kg, and another set of three rats received a single-dose oral administration of SJP1602 at 20 mg/kg. The vehicle composition used was DMA 3% and Cremophor ELP 4%. Blood drug concentrations over time were determined by drawing blood after 0.17, 0.5, 1, 2, 4, 6, and 24 h. Plasma was isolated using K3EDTA anticoagulation tubes, and the drug concentration in the plasma was analyzed by LC/MS/MS (Waters, MA, USA). To analyze the concentration of pretreated rat plasma samples, a Waters Acquity ultra-performance liquid chromatography system (UPLC, Waters) was employed, in tandem with a C18 column (Acquity UPLC® BEH C18 1.7 μm, 2.1 × 50 mm). The mass spectrometry analysis was conducted using the Waters Xevo-TQ-S micro. For the mobile phases, phase A consisted of distilled water with 0.1% formic acid, while phase B comprised methanol, also with 0.1% formic acid. PK parameters were subsequently derived using WinNonlin software (version 2.1), which enabled the determination of AUC (ng×h/mL), Cmax (ng/mL), and bioavailability (BA). The area under the drug concentration curve (AUC) was calculated utilizing the trapezoidal rule, focusing on the time interval AUC0–24h.

Series [3] has as its target T1, FAK [pY397] in HCC70 cells (Homo sapiens, UniProt Q05397).
T1 construct: endogenous in cells; host or cells: HCC70
Nature of the series: FAK [pY397] ELISA in HCC70 cells. It counts as cell-based. The conditions noted are these: HCC70, 1 h treatment, mean ± SEM (n = 3); read-out: IC50 FAK phosphorylation (pY397 ELISA). Here is the method:
(§1) TNBC cells were seeded into 60 mm dishes at a density of 1 × 10^6 cells/dish in 5 mL of culture media. After 24 h, cells were treated with concentrations ranging from 1 nM to 10 μM of SJP1602 for 1 h, and cell lysates were prepared to detect phospho-FAK levels. The FAK [pY397] enzyme-linked immunosorbent assay was performed according to the manufacturer’s instructions. The absorbance at 450 nm was measured to quantify the results.
For orientation: In an ELISA, binding on a coated surface is turned into a signal by an enzyme label.

Series [4] can be described thus: Cytotoxicity on normal cell line HEK293T. Format: cell-based. The conditions noted are these: human, HEK293T cells (normal cell line); read-out: Cytotoxicity on Normal Cell Lines IC50.
The next series has as its system MDA-MB-231 cells. Put plainly: Transwell cell migration assay. The note with it: 5 µM, 16 h. Format: cell-based, human. Here is the method: Cell migration capacity was analyzed using the transwell migration assay. The 24-well chambers (8 μm pore size) were obtained from Corning (Corning, NY, USA). Cells treated with vehicle or FAK inhibitors (SJP1602, VS-6063, GSK2256098) at a concentration of 5 μM were resuspended in serum-free media and 5 × 10^4 cells were added to the upper compartment of the transwell chambers. Fresh culture medium with 5% FBS was added to the lower compartment. After 16 h, cells on the upper side of the filter were removed using cotton swabs. The underside of the filter was fixed in 100% methanol, washed in PBS, and stained using crystal violet. Migrated cells were analyzed using a microscope (Nikon, TE2000). Image analysis was performed using the color analysis function in Adobe Photoshop 2021 (Version 22.4.2, Adobe (San Jose, CA, USA)). Quantitative data were obtained from color measurement records in Adobe Photoshop 2021.

For series [5], the target named is T2, FAK [pY397] in MDA-MB-453 cells (Homo sapiens, UniProt Q05397).
T2 construct: endogenous in cells; host or cells: MDA-MB-453
Put plainly: FAK [pY397] ELISA in MDA-MB-453 cells. It counts as cell-based. The note with it: MDA-MB-453, 1 h treatment, mean ± SEM (n = 3); read-out: IC50 FAK phosphorylation (pY397 ELISA). The protocol: as §1

The subject of the next series is MDA-MB-453 xenograft. Nature of the series: MDA-MB-453 xenograft mouse model. The conditions noted are these: for TGI: 56 days.
Another series concerns Hs578T. Put plainly: 3D spheroid assay Hs578T. It counts as cell-based. The note with it: Homo sapiens, Hs-578T, 96 h, 4 days treatment, read-out: IC50 3D spheroid cell viability. The protocol: Breast cancer cell lines were cultured in medium with or without 2% Matrigel (Corning, NY, USA) for 3 days in each 96-well ultra-low attachment round plate to form a single spheroid at a density of 3 × 10^3 cells/well. SJP1602 was dissolved in DMSO and treated for 4 days at concentrations ranging from 200 nM to 20 μM. Cell viability was quantified according to the manufacturer’s instructions using a CellTiter-Glo 3D cell viability assay (Promega, Madison, WI, USA). Luminescence was measured using the Tecan Spark 10M.

For the next series, the system named is BT-549 xenograft. Nature of the series: BT-549 xenograft mouse model.
Series [6] has as its system MDA-MB-231, 4T1, and Hs578T cells. Nature of the series: 3D cell invasion assay. The conditions noted are these: 1 µM, 72 h, compared to VS-6063 and GSK 2256098. Format: cell-based. Here is the method: Cells were added to an ultra-low 96-well round-bottom plate at a density of 5 × 10^3 cells/well and cultured for 3 days to form spheroids. The medium was removed, and a mixture of neutralized Type I Collagen and Matrigel was added to the wells. After 1 h of incubation, compound concentrations (2×) in 100 μL of solution were added per well. The plate was then incubated for 72 h. Relative invasion was quantified based on the following formula using the microscope and imaging software ImageJ (Version 2.1.0/1.54e, National Institutes of Health, Bethesda, MD, USA):Relative invasion = (total area of compound treated group − spheroid area of compound treated group/(total area of control − spheroid area of control)(1)

Where [7] appears, read: male, SD, rat, plasma, po, 20 mg/kg, po 20 mg/kg, male SD rats.
[8] abbreviates: rat, plasma, iv 5 mg/kg, male SD rats.
Where [9] appears, read: rat, plasma, po 20 mg/kg, male SD rats.

Structures are written as SMILES. Values joined by “and” are separate entries in the source; they are usually repeats but may differ in a detail not shown here. Equal values may be shown once.

T1 sequence (Q05397 whole entry): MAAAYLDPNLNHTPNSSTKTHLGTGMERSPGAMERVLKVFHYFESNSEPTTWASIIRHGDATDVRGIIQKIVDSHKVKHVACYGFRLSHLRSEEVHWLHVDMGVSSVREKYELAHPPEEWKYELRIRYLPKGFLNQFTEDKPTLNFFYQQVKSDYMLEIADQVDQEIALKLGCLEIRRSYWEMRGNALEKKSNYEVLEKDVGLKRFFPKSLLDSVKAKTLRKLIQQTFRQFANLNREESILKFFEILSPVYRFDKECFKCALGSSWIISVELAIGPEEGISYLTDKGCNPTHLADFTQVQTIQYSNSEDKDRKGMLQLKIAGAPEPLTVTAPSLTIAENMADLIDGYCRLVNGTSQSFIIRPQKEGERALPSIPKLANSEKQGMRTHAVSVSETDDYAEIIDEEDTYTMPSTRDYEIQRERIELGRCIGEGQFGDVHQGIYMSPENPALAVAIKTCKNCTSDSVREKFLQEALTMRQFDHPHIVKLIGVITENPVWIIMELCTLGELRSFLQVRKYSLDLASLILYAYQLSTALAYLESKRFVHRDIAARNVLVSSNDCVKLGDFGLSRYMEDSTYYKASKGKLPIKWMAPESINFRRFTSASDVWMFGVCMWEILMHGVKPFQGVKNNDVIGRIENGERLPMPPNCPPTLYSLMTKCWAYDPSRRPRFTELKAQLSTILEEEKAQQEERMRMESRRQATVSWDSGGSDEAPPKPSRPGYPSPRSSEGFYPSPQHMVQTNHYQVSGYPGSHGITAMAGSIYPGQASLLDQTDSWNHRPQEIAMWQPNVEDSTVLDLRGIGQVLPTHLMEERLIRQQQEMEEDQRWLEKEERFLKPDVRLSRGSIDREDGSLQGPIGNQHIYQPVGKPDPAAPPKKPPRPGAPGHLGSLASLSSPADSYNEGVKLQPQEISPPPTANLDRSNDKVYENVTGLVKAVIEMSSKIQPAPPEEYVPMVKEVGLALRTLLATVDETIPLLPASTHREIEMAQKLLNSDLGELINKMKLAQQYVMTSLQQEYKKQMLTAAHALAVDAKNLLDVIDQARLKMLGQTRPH
T2 sequence (Q05397 whole entry): as above
Experimental for BT-549 xenograft: (§2) Upon establishment of tumors, with an average tumor volume reaching approximately 100 mm^3, mice were grouped and subjected to daily oral dosing. […] The duration of drug administration was defined for 2 weeks based on the growth rate of the vehicle group of each xenografted tumor. The tumor volume was measured three times a week for potency measurement, and the body weight of mice was also measured three times a week for toxicity evaluation in vivo.
Experimental for MDA-MB-231 xenograft: as §2
Experimental for MDA-MB-453 xenograft: as §2

On to `CNC(=O)c1cccc(C)c1Nc1nc(Nc2ccc(N3CCN(C4C5CC6CC4CC(O)(C6)C5)CC3)cc2OC)ncc1C(F)(F)F` (stereo not shown) [SJP1602, 2-((2-((4-(4-((2s,5r)-5-hydroxyadamantan-2-yl)piperazin-1-yl)-2-methoxyphenyl)amino)-5-(trifluoromethyl)pyrimidin-4-yl)amino)-N,3-dimethylbenzamide], for which the IC50 (usually the concentration at which inhibition is half-maximal) is 9.62 µM in [1]; 0.083 ± 0.017 µM in series [3]; greater than 10 µM in series [4]; 0.043 ± 0.016 µM in series [5]; greater than 10 µM with Hs578T. Besides, the TGI in the series with MDA-MB-231 xenograft (20 mg/kg po QD, day 14, 20 mg/kg) is 72% and 72.1%; in the series with MDA-MB-231 xenograft (40 mg/kg po QD, day 14, 40 mg/kg), 74%; in the series on MDA-MB-231 xenograft (80 mg/kg po QD, day 14, 80 mg/kg), 81% and 81.3%; with MDA-MB-453 xenograft (20 mg/kg po QD), 88.9%; in the series on MDA-MB-453 xenograft (80 mg/kg po QD), 114.1%; in the series on BT-549 xenograft (20 mg/kg po QD) it was 76.0%. For the same compound, the TGI in the series on BT-549 xenograft (80 mg/kg po QD) was 77.5%. Moreover, the “tumor mass and weight” value in the series on MDA-MB-231 xenograft (80 mg/kg, day 14) is given as “significant reduction”. For the same compound, the half-life (usually the time needed for the level to fall by half in the phase considered) was 0.93 ± 0.25 h in series [2] (male, SD, rat, plasma, iv, 5 mg/kg, iv 5 mg/kg, male SD rats) and 2.2 h in series [2] (setting [7]). Besides, the bioavailability – broadly, dose-corrected exposure relative to a reference, in per cent – in [2] (setting [7]) was determined as 45%. The AUC (as a rule, concentration integrated over time) in series [2] (male, SD, rat, plasma, single oral dose 20 mg/kg, rats, read-out: area under the curve (AUC)) came out at 22 µM·h. Further, the T1/2 in series [2] (po 20 mg/kg, male SD rats, 20 mg/kg) amounted to 2.24 ± 0.19 h. Moreover, the exposure AUC(0-t) (usually exposure summed from dosing to a finite time, without extrapolation to infinity) is 7070 ng·h/mL in series [2] (setting [8]) and 14700 ng·h/mL in [2] (setting [9]). Besides, the figures for the maximum concentration (Cmax) in [2] (setting [8]) and in series [2] (setting [9]) were 3890 ng/mL and 3270 ng/mL, respectively. Also, the Tmax (commonly the time at which the peak concentration occurs) in [2] (setting [8]) came to 0.28 h; in series [2] (setting [9]), 1 h. This compound also yielded a peak concentration in series [2] (single oral dose 20 mg/kg, rats) of 4.9 µmol/L. Also, the “serum-stimulated migration of MDA-MB-231 cells” value in the series on MDA-MB-231 cells is “considerably reduced”. In addition, in the series on MDA-MB-453 xenograft (80 mg/kg, day 56), the “tumor volume and weight” value is on record as “substantial reduction”. Besides, in the series on BT-549 xenograft (20 mg/kg), the “tumor growth inhibition (in words)” value is reported as “pronounced inhibition of cancer growth”. In the series with BT-549 xenograft (80 mg/kg, day 21), the tumor weight entry was “did not statistically significantly decrease”. Besides, in series [6], the “TNBC cell invasion (3D)” value is “significantly inhibits”.

Turning to `CNC(=O)c1ccc(Nc2ncc(C(F)(F)F)c(NCc3nccnc3N(C)S(C)(=O)=O)n2)cc1` [VS-6063, Defactinib], the TGI worked out at 54.6% in the series with MDA-MB-231 xenograft (80 mg/kg po QD, day 14); 110.9% in the series with MDA-MB-453 xenograft (80 mg/kg po QD); 10.1% in the series on BT-549 xenograft (80 mg/kg po QD). Further, the IC50 in the series with Hs578T was determined as 4.49 µM. Besides, the “tumor growth inhibition (in words)” value with BT-549 xenograft (80 mg/kg) is listed as “ineffective”.

On to `CONC(=O)c1ccccc1Nc1cc(Nc2cc(C)nn2C(C)C)ncc1Cl` [GSK2256098], for which the “serum-stimulated migration of MDA-MB-231 cells” value in the series with MDA-MB-231 cells is reported as “did not affect”. Moreover, in the series with Hs578T, the IC50 was greater than 10 µM.

For the origin of these results see PMC10528299, “Targeting FAK/PYK2 with SJP1602 for Anti-Tumor Activity in Triple-Negative Breast Cancer” (Current Issues in Molecular Biology, 2023).
